The text below walks through data of patent publication US10131653B2, “Heterocyclic compound” (TAKEDA PHARMACEUTICAL COMPANY LIMITED, priority 2015, dated 2018).

Counter-ions that a name gives are not always drawn. Like-named read-outs stand apart in the source and are kept apart here.

One assay concerns the target T1, human OX2 receptor (Homo sapiens, UniProt O43614).
T1 construct: expressed in transfected cells; host or cells: CHO cells
T1 sequence (O43614 1-444): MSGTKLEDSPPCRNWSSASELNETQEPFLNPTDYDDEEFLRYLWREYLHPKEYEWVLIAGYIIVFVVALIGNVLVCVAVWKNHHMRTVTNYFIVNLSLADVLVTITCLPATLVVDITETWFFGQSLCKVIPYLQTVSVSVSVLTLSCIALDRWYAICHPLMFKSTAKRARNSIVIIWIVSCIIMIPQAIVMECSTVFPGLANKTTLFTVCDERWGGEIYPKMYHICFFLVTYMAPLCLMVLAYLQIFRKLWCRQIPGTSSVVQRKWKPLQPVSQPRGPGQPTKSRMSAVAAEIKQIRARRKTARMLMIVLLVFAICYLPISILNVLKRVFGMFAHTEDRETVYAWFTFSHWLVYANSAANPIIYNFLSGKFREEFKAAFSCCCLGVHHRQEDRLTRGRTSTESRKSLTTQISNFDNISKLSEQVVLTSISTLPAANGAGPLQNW
Put plainly: Measurement of orexin receptor antagonistic activity (calcium fluorescence, FLIPRtetra). Type of assay: cell-based. The conditions noted are these: CHO, read-out: Human Orexin2 receptor inhibition (at 10 μM). Summed up:
(§1)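 CHO cells expressing human OX1 or OX2 receptor, cultured one day. Compound in HBSS/20 mM HEPES/0.1% BSA added, then orexin-A at 1 nM final (OX1) or 0.3 nM final (OX2); calcium fluorescence by FLIPRtetra every 1 s for 2 min.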

The target of a further assay is T2, human OX1 receptor (Homo sapiens, UniProt O43613).
T2 construct: expressed in transfected cells; host or cells: CHO cells
T2 sequence (O43613 1-425): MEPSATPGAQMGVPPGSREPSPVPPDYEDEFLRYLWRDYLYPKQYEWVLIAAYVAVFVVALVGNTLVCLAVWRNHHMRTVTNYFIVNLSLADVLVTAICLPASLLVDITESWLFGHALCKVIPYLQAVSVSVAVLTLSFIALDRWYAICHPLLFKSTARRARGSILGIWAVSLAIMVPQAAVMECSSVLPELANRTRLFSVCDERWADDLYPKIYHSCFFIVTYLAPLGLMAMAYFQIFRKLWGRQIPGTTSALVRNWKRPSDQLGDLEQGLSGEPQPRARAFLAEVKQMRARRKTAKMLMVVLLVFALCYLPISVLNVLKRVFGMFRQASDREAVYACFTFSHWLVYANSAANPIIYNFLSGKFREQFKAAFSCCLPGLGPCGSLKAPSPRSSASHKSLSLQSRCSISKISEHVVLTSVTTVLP
The assay is described as above. Format: cell-based. The conditions noted are these: CHO, read-out: Human Orexin1 receptor inhibition (at 10 μM). Summed up:
as §1

[1] abbreviates: 10 μM test compound, CHO cells expressing human OX2 receptor, OX-A 0.3 nM.
The mark [2] stands for this setting: 10 μM test compound, CHO cells expressing human OX1 receptor, OX-A 1 nM.

For orientation: inhibition means the drop in the measured response relative to a control, in per cent.

For the compound `Cc1cc(C)nc(N2CCN(C(=O)c3ccccc3-c3ncc[nH]3)CCO2)n1` [Example 82, (2-(4,6-dimethylpyrimidin-2-yl)-1,2,5-oxadiazepan-5-yl) (2-(1H-imidazol-2-yl)phenyl)methanone], the inhibition at 10 µM on human OX2 receptor (setting [1]) is 83%; on human OX1 receptor (setting [2]), 18%.
As to `Cc1cc(C)nc(N2CCN(C(=O)c3cc(C#N)ccc3C)CCO2)n1` [Example 83, 3-((2-(4,6-dimethylpyrimidin-2-yl)-1,2,5-oxadiazepan-5-yl)carbonyl)-4-methylbenzonitrile], the figures for the inhibition at 10 µM on human OX2 receptor and at human OX1 receptor were 24% and 7%, respectively.
Regarding `Cc1cc(N2CCN(C(=O)c3ccccc3-c3nccs3)C[C@H](C)O2)nc(C)n1` [Example 84, ((7S)-2-(2,6-dimethylpyrimidin-4-yl)-7-methyl-1,2,5-oxadiazepan-5-yl)(2-(1,3-thiazol-2-yl)phenyl)methanone], the inhibition at 10 µM came out at 98% at human OX2 receptor (setting [1]) and 100% on human OX1 receptor (setting [2]).
On the same counts, the results for `Cc1nc(N2CCN(C(=O)c3ccccc3-c3nccs3)C[C@H](C)O2)cc(C(F)(F)F)n1` [Example 85, ((7S)-7-methyl-2-(2-methyl-6-(trifluoromethyl)pyrimidin-4-yl)-1,2,5-oxadiazepan-5-yl)(2-(1,3-thiazol-2-yl)phenyl)methanone] are 102% and 98%.
On the same counts, the results for `Cc1cc(N2CCN(C(=O)c3cc(F)ccc3-c3nccs3)C[C@H](C)O2)nc(C)n1` [Example 87, ((7S)-2-(2,6-dimethylpyrimidin-4-yl)-7-methyl-1,2,5-oxadiazepan-5-yl)(5-fluoro-2-(1,3-thiazol-2-yl)phenyl)methanone hydrochloride] are 102% and 81%.
In the case of `Cc1cc(N2CCN(C(=O)c3cc(Cl)ccc3-c3nccs3)C[C@H](C)O2)nc(C)n1` [Example 88, (5-chloro-2-(1,3-thiazol-2-yl)phenyl)((7S)-2-(2,6-dimethylpyrimidin-4-yl)-7-methyl-1,2,5-oxadiazepan-5-yl)methanone hydrochloride], the inhibition at 10 µM at human OX2 receptor (setting [1]) was 99%; on human OX1 receptor (setting [2]) it was 101%.
Take `Cc1cccc(N2CCN(C(=O)c3ccccc3-c3nccs3)C[C@H](C)O2)n1` [Example 89, ((7S)-7-methyl-2-(6-methylpyridin-2-yl)-1,2,5-oxadiazepan-5-yl) (2-(1,3-thiazol-2-yl)phenyl)methanone]: the figures for the inhibition at 10 µM on human OX2 receptor (setting [1]) and at human OX1 receptor (setting [2]) were 97% and 101%, respectively.
Regarding `C[C@H]1CN(C(=O)c2ccccc2-c2nccs2)CCN(c2ccc(Cl)cn2)O1` [Example 90, ((7S)-2-(5-chloropyridin-2-yl)-7-methyl-1,2,5-oxadiazepan-5-yl)(2-(1,3-thiazol-2-yl)phenyl)methanone], the inhibition at 10 µM was 96% on human OX2 receptor (setting [1]) and 101% on human OX1 receptor (setting [2]).
In the case of `Cc1cc(C)nc(N2CCN(C(=O)c3ccccc3-c3nccs3)C[C@H](C)O2)c1` [Example 91, ((7S)-2-(4,6-dimethylpyridin-2-yl)-7-methyl-1,2,5-oxadiazepan-5-yl)(2-(1,3-thiazol-2-yl)phenyl)methanone], the inhibition at 10 µM at human OX2 receptor (setting [1]) and on human OX1 receptor (setting [2]) was 100% in each case.
`Cc1nc(N2CCN(C(=O)c3ccccc3-n3nccn3)C[C@H](C)O2)cc(C(F)(F)F)n1` [Example 92, ((7S)-7-methyl-2-(2-methyl-6-(trifluoromethyl)pyrimidin-4-yl)-1,2,5-oxadiazepan-5-yl)(2-(2H-1,2,3-triazol-2-yl)phenyl)methanone]: the results for the inhibition at 10 µM on human OX2 receptor (setting [1]) and on human OX1 receptor (setting [2]) were 101% and 73%, respectively.
The corresponding values for `Cc1nc(C(F)F)cc(N2CCN(C(=O)c3ccccc3-n3nccn3)C[C@H](C)O2)n1` [Example 93, ((7S)-2-(6-(difluoromethyl)-2-methylpyrimidin-4-yl)-7-methyl-1,2,5-oxadiazepan-5-yl) (2-(2H-1,2,3-triazol-2-yl)phenyl)methanone] are 100% and 72%.
The corresponding values for `Cc1cc(N2CCN(C(=O)c3ccccc3-n3nccn3)C[C@H](C)O2)nc(C(F)(F)F)n1` [Example 94, ((7S)-7-methyl-2-(6-methyl-2-(trifluoromethyl)pyrimidin-4-yl)-1,2,5-oxadiazepan-5-yl) (2-(2H-1,2,3-triazol-2-yl)phenyl)methanone] are 104% and 106%.
The corresponding values for `C[C@H]1CN(C(=O)c2ccccc2-n2nccn2)CCN(c2cc(C(F)F)nc(C3CC3)n2)O1` [Example 95, ((7S)-2-(2-cyclopropyl-6-(difluoromethyl)pyrimidin-4-yl)-7-methyl-1,2,5-oxadiazepan-5-yl) (2-(2H-1,2,3-triazol-2-yl)phenyl)methanone] are 97% and 100%.
For the compound `C[C@H]1CN(C(=O)c2ccccc2-n2nccn2)CCN(c2cc(C3CC3)nc(C3CC3)n2)O1` [Example 96, ((7S)-2-(2,6-dicyclopropylpyrimidin-4-yl)-7-methyl-1,2,5-oxadiazepan-5-yl) (2-(2H-1,2,3-triazol-2-yl)phenyl)methanone], the inhibition at 10 µM at human OX2 receptor (setting [1]) and on human OX1 receptor (setting [2]) was 98% in each case.
Turning to `C[C@H]1CN(C(=O)c2ccccc2-n2nccn2)CCN(c2cc(C(F)(F)F)nc(C3CC3)n2)O1` [Example 97, ((7S)-2-(2-cyclopropyl-6-(trifluoromethyl)pyrimidin-4-yl)-7-methyl-1,2,5-oxadiazepan-5-yl) (2-(2H-1,2,3-triazol-2-yl)phenyl)methanone], the results for the inhibition at 10 µM on human OX2 receptor (setting [1]) and at human OX1 receptor (setting [2]) were 100% and 95%, respectively.
On the same counts, the results for `C[C@H]1CN(C(=O)c2ccccc2-n2nccn2)CCN(c2ccc(Cl)cn2)O1` [Example 98, ((7S)-2-(5-chloropyridin-2-yl)-7-methyl-1,2,5-oxadiazepan-5-yl) (2-(2H-1,2,3-triazol-2-yl)phenyl)methanone] are 104% and 97%.
For `C[C@H]1CN(C(=O)c2ccccc2-n2nccn2)CCN(c2ccn3nccc3n2)O1` [Example 99, ((7S)-7-methyl-2-(pyrazolo[1,5-a]pyrimidin-5-yl)-1,2,5-oxadiazepan-5-yl)(2-(2H-1,2,3-triazol-2-yl)phenyl)methanone], the values for the inhibition at 10 µM at human OX2 receptor (setting [1]) and at human OX1 receptor (setting [2]) were 98% and 87%, respectively.
With `Cc1nc(C(F)F)cc(N2CCN(C(=O)c3cc(F)ccc3-n3nccn3)C[C@H](C)O2)n1` [Example 100, ((7S)-2-(6-(difluoromethyl)-2-methylpyrimidin-4-yl)-7-methyl-1,2,5-oxadiazepan-5-yl)(5-fluoro-2-(2H-1,2,3-triazol-2-yl)phenyl)methanone], the inhibition at 10 µM at human OX2 receptor (setting [1]) stood at 102%; at human OX1 receptor (setting [2]) it was 42%.
The corresponding values for `Cc1nc(N2CCN(C(=O)c3cc(F)ccc3-n3nccn3)C[C@H](C)O2)cc(C(F)(F)F)n1` [Example 101, (5-fluoro-2-(2H-1,2,3-triazol-2-yl)phenyl)((7S)-7-methyl-2-(2-methyl-6-(trifluoromethyl)pyrimidin-4-yl)-1,2,5-oxadiazepan-5-yl)methanone] are 101% and 50%.
On the same counts, the results for `Cc1nc(C(F)F)cc(N2CCN(C(=O)c3cc(Cl)ccc3-n3nccn3)C[C@H](C)O2)n1` [Example 103, (5-chloro-2-(2H-1,2,3-triazol-2-yl)phenyl)((7S)-2-(6-(difluoromethyl)-2-methylpyrimidin-4-yl)-7-methyl-1,2,5-oxadiazepan-5-yl)methanone] are 100% and 90%.
On the same counts, the results for `Cc1cc(N2CCN(C(=O)c3cc(Cl)ccc3-n3nccn3)C[C@H](C)O2)nc(C(F)(F)F)n1` [Example 104, (5-chloro-2-(2H-1,2,3-triazol-2-yl)phenyl)((7S)-7-methyl-2-(6-methyl-2-(trifluoromethyl)pyrimidin-4-yl)-1,2,5-oxadiazepan-5-yl)methanone] are 96% and 104%.
For the compound `C[C@H]1CN(C(=O)c2cc(Cl)ccc2-n2nccn2)CCN(c2cc(C(F)F)nc(C3CC3)n2)O1` [Example 105, (5-chloro-2-(2H-1,2,3-triazol-2-yl)phenyl)((7S)-2-(2-cyclopropyl-6-(difluoromethyl)pyrimidin-4-yl)-7-methyl-1,2,5-oxadiazepan-5-yl)methanone], the inhibition at 10 µM on human OX2 receptor (setting [1]) was 98%; at human OX1 receptor (setting [2]), 96%.
